How the values were obtained:
Assay in all cases: Cell growth inhibition, SRB assay
Format in all cases: cell-based, human
[1] = test system: Caov-3; details: Ovarian Caov-3, 3% FBS
Protocol: (§1) Compounds were dissolved in DMSO and further diluted in cell culture medium for the experiments performed. Cells were seeded into 96-well plates with 1,500-5,000 cells/well according to cell growth rate. After 24 h, DMEM medium containing 10% FBS were changed to DMEM containing 3% FBS for cancer cells and additional 3% FBS were added into the culture medium for normal cells. The compound was added into the cell culture at the indicated concentrations, and the final concentration of DMSO was adjusted to a final concentration of 0.1%. Cells were subjected to either normoxic condition (20% O2) for 6 days or hypoxic condition (0.2% O2) for 2 days and then transferred to normoxic condition for 4 days. Cell viability was assessed by Sulforhodamine B (SRB) assay at Day 6.
(§2) Sulforhodamine B (SRB) (Sigma, Oakville, ON, Canada) is a water-soluble dye that binds to the basic amino acids of the cellular proteins. Thus, colorimetric measurement of the bound dye provides an estimate of the total protein mass that is related to the cell number. The cells were fixed in situ by gently aspirating off the culture media and adding 50 ul of cold 10% trichloroacetic Acid (TCA) per well and incubated at 4° C. for 30-60 min. The plates were washed five times with water and allowed to air dry for 5 min. 50 ul of 0.4% (w/v) SRB dissolved in 1% (v/v) acetic acid were added into each well, plates were then incubated at RT for 30 min for staining, washed four times with 1% acetic acid to remove any unbound dye and then allowed to air dry for 5 min. Stain was solubilized with 100 ul of 10 mM Tris pH 10.5 per well. Absorbance was read at 570 nm on a spectrophotometer. GI50 (compound concentration required for 50% of growth inhibition) was calculated using GraphPad Prism 4.0 software (GraphPad Software, Inc., San Diego, Calif., USA).
(§3) Cell viability of various cell lines treated with 3-carboxy-N,N,N-trimethyl-2-pentadecanamidopropan-1-aminium (“nPAC”) and compound of Examples S7, S63, S66, S90, S89, S67, S75 and S10 was also assessed in a manner as described above in Example 5.

[2] = test system: Hs578T; details: Breast Hs578T, 3% FBS
Protocol: as §1, §2, §3

[3] = test system: SW480; details: Colon SW480, 3% FBS
Protocol: as §1, §2, §3

[4] = test system: HCT-15; details: Colon HCT-15, 3% FBS
Protocol: as §1, §2, §3

[5] = test system: A54; details: Lung A54, 3% FBS
Protocol: as §1, §2, §3

[6] = test system: SW620; details: Colon SW620, 3% FBS
Protocol: as §1, §2, §3

[7] = test system: MDA-231; details: Breast MDA-231, 3% FBS
Protocol: as §1, §2, §3

[8] = test system: COLO-205; details: Colon COLO-205, 3% FBS
Protocol: as §1, §2, §3

[9] = test system: PC-3; details: Prostate PC-3, 3% FBS; read-out: GI50
Protocol: (§4) Human cancer cells (MCF-7, H358, H460, HCT116 p53^+/+, HCT116 p53^−/−, A172, PC-3, DU-145 and SW626) were maintained in DMEM medium containing 10% Fetal Bovine Serum (FBS) (Invitrogen, Burlington, ON, Canada) and normal cells HMEC, 184A1, NHBE and PrEC were cultured in MEGM, MEGM plus transferring and cholera toxin, BEGM and PrEGM supplemented with various growth factors (Cambrex, Charles city, IA, USA), respectively.
as §1, §2, §3

[10] = test system: MCF-7; details: Breast MCF-7, 3% FBS; read-out: GI50
Protocol: as §4, §1, §2, §3

[11] = test system: SW626; details: Ovarian SW626, 3% FBS; read-out: GI50
Protocol: as §4, §1, §2, §3

[12] = test system: A172; details: Brain A172, 3% FBS; read-out: GI50
Protocol: as §4, §1, §2, §3

[13] = test system: H358; details: Lung H358, 3% FBS; read-out: GI50
Protocol: as §4, §1, §2, §3

## 3-carboxy-N,N,N-trimethyl-2-pentadecanamidopropan-1-aminium [nPAC, reference compound]
[1]
  GI50: 1.3 µM
[2]
  GI50: 19 µM
[3]
  GI50: 0.4 µM
[4]
  GI50: 1.5 µM
[5]
  GI50: 20 µM
[6]
  GI50: 0.5 µM
[7]
  GI50: 10 µM
[8]
  GI50: 0.4 µM
[9]
  GI50: 2.5 µM
[10]
  GI50: 6.6 µM
[11]
  GI50: 1.2 µM
[12]
  GI50: 3.2 µM
[13]
  GI50: 0.7 µM

Reference: patent publication US8410150B2, “Inhibitors of carnitine palmitoyltransferase and treating cancer” (University Health Network, priority 2007, dated 2013)
